US20050118290A1, “Compositions and method for treatment of steroid/nuclear receptor-mediated diseases” (University of Singapore, priority 2003, published 2005)

Target: T1, PPARγ (Homo sapiens, UniProt P37231)
T1 construct: expressed in transfected cells; host or cells: HeLa
T1 sequence (P37231 238-503 limits assumed): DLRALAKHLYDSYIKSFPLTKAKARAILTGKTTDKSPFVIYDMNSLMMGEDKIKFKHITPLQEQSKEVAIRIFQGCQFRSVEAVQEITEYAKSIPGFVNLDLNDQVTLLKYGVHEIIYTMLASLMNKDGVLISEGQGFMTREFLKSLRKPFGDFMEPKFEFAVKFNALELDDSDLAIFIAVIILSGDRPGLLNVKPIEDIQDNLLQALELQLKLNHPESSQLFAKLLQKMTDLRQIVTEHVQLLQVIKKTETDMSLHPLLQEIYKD
Assay: Chimeric Gal4DBD-PPARγLBD receptor / UASg-luciferase reporter gene assay in HeLa cells
Type: cell-based
Excerpt: In an example of such a reporter gene assay, a plasmid containing chimeric Ga14DBD-PPARLBD receptor cDNA was constructed by excising the ligand binding domain (LBD) of full length PPARγ and PPARα and ligating the resulting fragments in frame to the Ga14-DNA binding domain (DBD) of Saccharomyces cerevisiae in a pM vector (Clontech). Specifically, to construct Ga14DBD-PPARγLBD plasmid, pSG5 expression vector (Stratagene) containing full length PPARγ was excised with Rsa I and blunt ligated to Hind III site of pMGa14DBD expression plasmid (Clontech). To construct Ga14DBD-PPARαLBD plasmid, pSG5 expression vector (Stratagene) containing full length PPARα was excised with BstU I and BamH I and blunt-end ligated in frame to BamH I site of pMGa14DBD expression plasmid (Clontech). […] Ga14 DBD binds very strongly to the exogenous UASg promoter, thereby giving rise to a sensitive and specific assay. To measure PPARγ and PPARα agonist activity, HeLa cells were grown in 24-well microtiter plates and then transiently co-transfected with the two plasmids (chimeric PPAR receptor and UASg reporter gene) using Lipofectamine (Invitrogen). […] Concurrently, cells exposed to known PPAR ligands served as positive controls. Replicate wells, exposed to the vehicle solvent (i.e., ethanol or methanol) in which herbal extracts were dissolved, were used as negative controls. After the 40 hr incubation period, cells were rinsed with phosphate buffered saline (PBS), lysis buffer was added, and cell lysates were collected for measurement of luciferase activity using a luminometer. […] All data points are in triplicate. The data points represent the mean of triplicate wells. Luciferase activity in such an assay accurately reflects the activity of any ligands on PPARγ or PPARα.

SMILES | PPARγ activity comparable to % maximal activity of pioglitazone (30×10^−6 g/ml) | maximal fold PPARγ activity (30×10^−6 g/ml) | Luciferase activity (Fold over vehicle ± SE) PPARγ/Pioglitazone (30 × 10^−6M) (calycosin 3 ×10^−6 g/mL) | Luciferase activity (Fold over vehicle ± SE) PPARγ/Pioglitazone (30 × 10^−6M) (calycosin 10 ×10^−6 g/mL) | Luciferase activity (Fold over vehicle ± SE) PPARγ/Pioglitazone (30 × 10^−6M) (calycosin 30 ×10^−6 g/mL) | increase of the activity of maximal doses of PPARγ agonist (with pioglitazone 30×10^−6M) | PPARγ activity comparable to % maximal activity of pioglitazone (20×10^−6 g/m) | maximal fold PPARγ activity (20×10^−6 g/m)
COc1ccc(-c2coc3cc(O)ccc3c2=O)cc1O [calycosin, 3′,7-Dihydroxy-4′-methoxyisoflavone] | ~50% | 40 fold | 105 ± 10.7 Fold | 162 ± 28.5 Fold | 253 ± 30.7 Fold | 3 fold | – | –
O=c1c(-c2ccc(O)cc2)coc2cc(O)ccc12 [daidzein] | – | – | – | – | – | – | ~22% | 20 fold
